From the NIST ThermoML archive (doi:10.1016/j.jct.2007.04.006)

Assays:
[1] = 298.15 K, 101.33 kPa, Liquid; for speed of sound: Sing-around technique in a fixed-path interferometer
[2] = mn = molality of the nth substance listed, in mol/kg; conditions: 101 kPa, Liquid; for speed of sound: Sing-around technique in a fixed-path interferometer

CO [methanol]
[1]
Conditions	mass density [kg/m3]	speed of sound [m/s]
–	786.71	1108.5

CC(C)O [propan-2-ol]
[1]
Conditions	mass density [kg/m3]	speed of sound [m/s]
–	780.804	1139.1

[Br-].[Li+] [lithium bromide] + CO
[2], 298.15 K
Conditions	mass density [kg/m3]	speed of sound [m/s]
m1 = 0.0425	789.48	1110.7
m1 = 0.0588	790.553	1111.3
m1 = 0.0714	791.384	1112
m1 = 0.0903	792.602	1112.8
m1 = 0.1168	794.333	1113.9
m1 = 0.1473	796.328	1115.1
m1 = 0.2089	800.289	1117.7
m1 = 0.2993	806.041	1121.1
m1 = 0.5035	818.761	1128.8
m1 = 0.7097	831.385	1136.2
m1 = 0.9875	848.253	1146.1
m1 = 1.163	858.424	1152
m1 = 1.464	876.582	1162.5
m1 = 1.97	905.481	1179.6
m1 = 2.45	933.222	1195.9
m1 = 3.489	989.847	1231.2

CC#N [acetonitrile]
[1]
Conditions	mass density [kg/m3]	speed of sound [m/s]
–	776.6	1279.2

[Br-].[Li+] [lithium bromide] + CC(=O)N(C)C
[2], 323.15 K
Conditions	mass density [kg/m3]	speed of sound [m/s]
m1 = 0.0322	915.827	1360.8
m1 = 0.0511	917.401	1362.5
m1 = 0.0638	918.452	1363.6
m1 = 0.0978	921.232	1366.4
m1 = 0.1188	922.89	1368.1
m1 = 0.1475	925.178	1370.3
m1 = 0.2003	929.349	1374.4
m1 = 0.2472	933.065	1378.2
m1 = 0.3042	937.515	1382.1
m1 = 0.3988	944.893	1389.2
m1 = 0.4886	951.867	1395.9
m1 = 0.601	960.362	1403.8
m1 = 0.7053	968.26	1411.4
m1 = 0.9019	982.963	1425.5
m1 = 1	990.219	1432.6
m1 = 1.189	1004.06	1446.1
m1 = 1.327	1013.96	1455.4

[Br-].[Li+] [lithium bromide] + CC(C)=O
[2], 298.15 K
Conditions	mass density [kg/m3]	speed of sound [m/s]
m1 = 0.0301	784.377	1141.5
m1 = 0.0367	785.81	1142.3
m1 = 0.0486	786.228	1142.6
m1 = 0.0679	787.379	1143.1
m1 = 0.0776	787.748	1143.3
m1 = 0.0873	790.137	1144.5
m1 = 0.099	793.601	1146.2
m1 = 0.1177	797.348	1148.1
m1 = 0.1424	803.296	1150.9
m1 = 0.3719	806.427	1152.3
m1 = 0.4973	811.456	1154.5
m1 = 0.5928	818.719	1157.7
m1 = 0.7044	824.988	1160.3
m1 = 0.8	829.74	1162.3

CCO [ethanol]
[1]
Conditions	mass density [kg/m3]	speed of sound [m/s]
–	785.125	1143.4
